The test deals with T1, HEK-Blue-hTLR9 cells (Homo sapiens, UniProt Q9NR96).
T1 construct: expressed in transfected cells; host or cells: HEK-Blue-hTLR9 cells (HEK293-derived reporter line)
T1 sequence (Q9NR96 26-1032): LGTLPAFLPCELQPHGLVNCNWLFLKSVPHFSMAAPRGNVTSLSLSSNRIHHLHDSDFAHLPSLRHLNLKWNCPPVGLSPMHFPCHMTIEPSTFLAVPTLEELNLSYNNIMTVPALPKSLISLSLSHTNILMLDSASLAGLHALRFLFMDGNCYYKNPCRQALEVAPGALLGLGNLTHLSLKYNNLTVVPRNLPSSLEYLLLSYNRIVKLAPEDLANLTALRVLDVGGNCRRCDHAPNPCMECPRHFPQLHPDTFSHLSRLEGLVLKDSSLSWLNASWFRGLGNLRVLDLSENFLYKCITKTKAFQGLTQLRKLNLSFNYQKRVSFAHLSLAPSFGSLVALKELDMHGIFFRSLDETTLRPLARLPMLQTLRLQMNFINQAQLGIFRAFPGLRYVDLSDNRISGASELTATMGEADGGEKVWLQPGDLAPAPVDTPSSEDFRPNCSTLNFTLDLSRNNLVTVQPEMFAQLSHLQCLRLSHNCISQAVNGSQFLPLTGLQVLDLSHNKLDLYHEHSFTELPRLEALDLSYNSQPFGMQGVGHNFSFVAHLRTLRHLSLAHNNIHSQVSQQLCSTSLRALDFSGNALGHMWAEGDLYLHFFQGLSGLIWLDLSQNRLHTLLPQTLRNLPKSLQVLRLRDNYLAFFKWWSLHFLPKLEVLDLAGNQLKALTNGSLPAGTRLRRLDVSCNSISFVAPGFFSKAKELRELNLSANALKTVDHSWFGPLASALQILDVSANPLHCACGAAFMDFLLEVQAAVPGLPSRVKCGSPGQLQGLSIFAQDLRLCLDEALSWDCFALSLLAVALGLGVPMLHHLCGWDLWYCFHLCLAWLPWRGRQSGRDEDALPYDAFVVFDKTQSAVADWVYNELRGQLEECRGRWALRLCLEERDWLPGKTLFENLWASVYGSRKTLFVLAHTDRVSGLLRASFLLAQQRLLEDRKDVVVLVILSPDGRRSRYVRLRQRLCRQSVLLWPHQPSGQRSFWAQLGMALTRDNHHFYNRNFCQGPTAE
Kind of test: HEK-Blue-hTLR9 cell inhibition assay. Format: cell-based. The conditions noted are these: ODN2006 1 µM, 16 h, OD 620 nm, read-out: TLR9 IC50. The method in brief:
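Cells were pre-incubated 4 h, then co-treated 16 h at 37 °C with compound (10 doses, 0.5–10000 nM final) plus R848 (0.8 µM for TLR7, 3 µM for TLR8) or ODN2006 (1 µM, TLR9). Reporter OD620 gave inhibition relative to DMSO blank and agonist-only controls; IC50 came from curve fitting.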

The structures appear in SMILES notation. Bounds are passed on as bounds.

Regarding `N#Cc1ccc(N2C[C@]3(c4nnc(C56CCC(NC(=O)[C@@H]7COCCN7)(CC5)CC6)o4)C[C@]3(C(F)(F)F)C2)c2cccnc12` [Compound 54, (S)-N-(4-(5-((1S,5R)-3-(8-cyanoquinolin-5-yl)-5-(trifluoromethyl)-3-azabicyclo[3.1.0]hexan-1-yl)-1,3,4-oxadiazol-2-yl)bicyclo[2.2.2]octan-1-yl)morpholine-3-carboxamide], the IC50 (commonly the point on the concentration scale where inhibition reaches its midpoint) is more than 1000 nM. The result for `N#Cc1ccc(N2C[C@]3(c4nnc([C@H]5CN(CC(N)=O)CCO5)o4)C[C@]3(C(F)(F)F)C2)c2cccnc12` [Compound 56, 2-((R)-2-(5-((1S,5R)-3-(8-cyanoquinolin-5-yl)-5-(trifluoromethyl)-3-azabicyclo[3.1.0]hexan-1-yl)-1,3,4-oxadiazol-2-yl)morpholino)acetamide] reads more than 10000 nM.

On to `N#Cc1ccc(N2C[C@]3(c4nnc(C5(F)CCNCC5)o4)C[C@]3(C(F)(F)F)C2)c2cccnc12` [Compound 60, 5-((1S,5R)-1-(5-(4-fluoropiperidin-4-yl)-1,3,4-oxadiazol-2-yl)-5-(trifluoromethyl)-3-azabicyclo[3.1.0]hexan-3-yl)quinoline-8-carbonitrile], for which the IC50 is less than 1000 nM. As for `COc1ccc(N2C[C@]3(c4nnc(C5CCN(C)CC5)o4)C[C@]3(C(F)(F)F)C2)c2cccnc12` [Compound 66, 2-((1S,5R)-3-(8-methoxyquinolin-5-yl)-5-(trifluoromethyl)-3-azabicyclo[3.1.0]hexan-1-yl)-5-(1-methylpiperidin-4-yl)-1,3,4-oxadiazole], the IC50 was more than 1000 nM. The result for `CN1CCC(n2cc([C@]34CN(c5ccc(C#N)c6ncccc56)C[C@@]3(C(F)(F)F)C4)nn2)CC1` [Compound 71, 5-((1S,5R)-1-(1-(1-methylpiperidin-4-yl)-1H-1,2,3-triazol-4-yl)-5-(trifluoromethyl)-3-azabicyclo[3.1.0]hexan-3-yl)quinoline-8-carbonitrile] reads more than 1000 nM; that for `FC(F)(F)c1ccc(N2C[C@]3(c4nnc(C5CCNCC5)o4)C[C@]3(C(F)(F)F)C2)c2cccnc12` [Compound 75, 2-(piperidin-4-yl)-5-((1S,5R)-5-(trifluoromethyl)-3-(8-(trifluoromethyl)quinolin-5-yl)-3-azabicyclo[3.1.0]hexan-1-yl)-1,3,4-oxadiazole], more than 1000 nM; that for `FC(F)(F)c1ccc(N2C[C@]3(c4nnc(C5CCN(CC6CC6)CC5)o4)C[C@]3(C(F)(F)F)C2)c2cccnc12` [Compound 76, 2-(1-(cyclopropylmethyl)piperidin-4-yl)-5-((1S,5R)-5-(trifluoromethyl)-3-(8-(trifluoromethyl)quinolin-5-yl)-3-azabicyclo[3.1.0]hexan-1-yl)-1,3,4-oxadiazole], more than 1000 nM. The figure for `NC(=O)CN1CCC(c2nnc([C@]34CN(c5ccc(C(F)(F)F)c6ncccc56)C[C@@]3(C(F)(F)F)C4)o2)CC1` [Compound 77, 2-(4-(5-((1S,5R)-5-(trifluoromethyl)-3-(8-(trifluoromethyl)quinolin-5-yl)-3-azabicyclo[3.1.0]hexan-1-yl)-1,3,4-oxadiazol-2-yl)piperidin-1-yl)acetamide] is more than 10000 nM; for `CN1[C@@H]2CC[C@H]1C[C@H](c1nnc([C@]34CN(c5ccc(C(F)(F)F)c6ncccc56)C[C@@]3(C(F)(F)F)C4)o1)C2` [Compound 79, 2-((1R,3S,5S)-8-methyl-8-azabicyclo[3.2.1]octan-3-yl)-5-((1S,5R)-5-(trifluoromethyl)-3-(8-(trifluoromethyl)quinolin-5-yl)-3-azabicyclo[3.1.0]hexan-1-yl)-1,3,4-oxadiazole] it is more than 1000 nM; for `N#Cc1ccc(N2C[C@]3(c4nnc(C5CCNCC5)o4)C[C@]3(C(F)(F)F)C2)c2c(F)cnn12` [Compound 80, 3-fluoro-4-((1S,5R)-1-(5-(piperidin-4-yl)-1,3,4-oxadiazol-2-yl)-5-(trifluoromethyl)-3-azabicyclo[3.1.0]hexan-3-yl)pyrazolo[1,5-a]pyridine-7-carbonitrile] it is more than 1000 nM. The result for `NC12CCC(c3nnc([C@]45CN(c6ccc(C(F)(F)F)c7ncccc67)C[C@@]4(C(F)(F)F)C5)o3)(CC1)CC2` [Compound 81, 4-(5-((1S,5R)-5-(trifluoromethyl)-3-(8-(trifluoromethyl)quinolin-5-yl)-3-azabicyclo[3.1.0]hexan-1-yl)-1,3,4-oxadiazol-2-yl)bicyclo[2.2.2]octan-1-amine] reads more than 1000 nM; that for `CN1CCC(c2nnc([C@]34CN(c5ccc(C#N)n6ncc(Br)c56)C[C@@]3(C(F)(F)F)C4)o2)CC1` [Compound 83, 3-bromo-4-((1S,5R)-1-(5-(1-methylpiperidin-4-yl)-1,3,4-oxadiazol-2-yl)-5-(trifluoromethyl)-3-azabicyclo[3.1.0]hexan-3-yl)pyrazolo[1,5-a]pyridine-7-carbonitrile], more than 1000 nM; that for `CN1CCC(c2nnc([C@]34CN(c5ccc(C#N)n6ncc(Cl)c56)C[C@@]3(C(F)(F)F)C4)o2)CC1` [Compound 84, 3-chloro-4-((1S,5R)-1-(5-(1-methylpiperidin-4-yl)-1,3,4-oxadiazol-2-yl)-5-(trifluoromethyl)-3-azabicyclo[3.1.0]hexan-3-yl)pyrazolo[1,5-a]pyridine-7-carbonitrile], more than 1000 nM. On to `CN1CCC(c2nnc([C@]34CN(c5c(Br)cc(C#N)n6ncc(Br)c56)C[C@@]3(C(F)(F)F)C4)o2)CC1` [Compound 85, 3,5-dibromo-4-((1S,5R)-1-(5-(1-methylpiperidin-4-yl)-1,3,4-oxadiazol-2-yl)-5-(trifluoromethyl)-3-azabicyclo[3.1.0]hexan-3-yl)pyrazolo[1,5-a]pyridine-7-carbonitrile], for which the IC50 was more than 1000 nM. The result for `CN1CCC(c2nnc([C@]34CN(c5c(Br)cc(C#N)n6nccc56)C[C@@]3(C(F)(F)F)C4)o2)CC1` [Compound 86, 5-bromo-4-((1S,5R)-1-(5-(1-methylpiperidin-4-yl)-1,3,4-oxadiazol-2-yl)-5-(trifluoromethyl)-3-azabicyclo[3.1.0]hexan-3-yl)pyrazolo[1,5-a]pyridine-7-carbonitrile] reads more than 1000 nM; that for `CN1CCC(c2nnc([C@]34CN(c5ccc(C(F)(F)F)n6nccc56)C[C@@]3(C(F)(F)F)C4)o2)CC1` [Compound 87, 2-(1-methylpiperidin-4-yl)-5-((1S,5R)-5-(trifluoromethyl)-3-(7-(trifluoromethyl)pyrazolo[1,5-a]pyridin-4-yl)-3-azabicyclo[3.1.0]hexan-1-yl)-1,3,4-oxadiazole], more than 1000 nM. The figure for `CN1CCC(F)(c2nnc([C@]34CN(c5ccc(C#N)n6nccc56)C[C@@]3(C(F)(F)F)C4)o2)CC1` [Compound 90, 4-((1S,5R)-1-(5-(4-fluoro-1-methylpiperidin-4-yl)-1,3,4-oxadiazol-2-yl)-5-(trifluoromethyl)-3-azabicyclo[3.1.0]hexan-3-yl)pyrazolo[1,5-a]pyridine-7-carbonitrile] is more than 1000 nM; for `CN1CCC(c2nnc([C@]34CN(c5ccc(C#N)c6ncnn56)C[C@@]3(C(F)(F)F)C4)o2)CC1` [Compound 91, 5-((1S,5R)-1-(5-(1-methylpiperidin-4-yl)-1,3,4-oxadiazol-2-yl)-5-(trifluoromethyl)-3-azabicyclo[3.1.0]hexan-3-yl)-[1,2,4]triazolo[1,5-a]pyridine-8-carbonitrile] it is more than 10000 nM.

`CN1CCC(Oc2nnc([C@]34CN(c5ccc(C(F)(F)F)c6ncccc56)C[C@@]3(C(F)(F)F)C4)o2)CC1` [Compound 92, 2-((1-methylpiperidin-4-yl)oxy)-5-((1S,5R)-5-(trifluoromethyl)-3-(8-(trifluoromethyl)quinolin-5-yl)-3-azabicyclo[3.1.0]hexan-1-yl)-1,3,4-oxadiazole]: the IC50 is more than 1000 nM.

Turning to `CN1CCC(Oc2nnc([C@]34CN(c5ccc(OC(F)(F)F)c6ncccc56)C[C@@]3(C(F)(F)F)C4)o2)CC1` [Compound 93, 2-((1-methylpiperidin-4-yl)oxy)-5-((1S,5R)-5-(trifluoromethyl)-3-(8-(trifluoromethoxy)quinolin-5-yl)-3-azabicyclo[3.1.0]hexan-1-yl)-1,3,4-oxadiazole], the IC50 is more than 10000 nM.

In the case of `CN1CCC(O)(c2nnc([C@]34CN(c5ccc(C(F)(F)F)c6ncccc56)C[C@@]3(C(F)(F)F)C4)o2)CC1` [Compound 94, 1-methyl-4-(5-((1S,5R)-5-(trifluoromethyl)-3-(8-(trifluoromethyl)quinolin-5-yl)-3-azabicyclo[3.1.0]hexan-1-yl)-1,3,4-oxadiazol-2-yl)piperidin-4-ol], the IC50 was more than 1000 nM.

The record behind these values is patent publication EP4806891A1 (Kangbaida (Sichuan) Biotechnology Co., Ltd., priority 2023, dated 2025).
